Patent US9006487B2, “Amine-containing lipids and uses thereof” (Massachusetts Institute of Technology, priority 2005, dated 2015)

System: cos-7 cells
Assay: DNA transfection: luciferase expression relative to Lipofectamine 2000
Assay type: cell-based
Settings: 2.5 w/w lipid to DNA; 300 ng DNA per well; luciferase assay after 48 hours
Summary of the method: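 Lipid/DNA complexes, 300 ng luciferase DNA per well at 2.5-25 w/w lipid:DNA, were formed in sodium acetate/Optimem and added to overnight-seeded cos-7 cells. Luciferase was measured by Bright-Glo luminescence after 48 hours and quantified against an enzyme standard curve. Values are expressed as % of Lipofectamine 2000 at 2.5 w/w.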

SMILES	% of the luciferase activity obtained from the use of Lipofectamine 2000 [%]
CCCCCCCCCCCCCOC(=O)CCN(CCC(=O)OCCCCCCCCCCCCC)CCN(CCO)CCO [LE86]	31.1

Same assay, conditions: 5 w/w lipid to DNA; 300 ng DNA per well; luciferase assay after 48 hours

SMILES	% of the luciferase activity obtained from the use of Lipofectamine 2000 [%]
CCCCCCCCCCCCCOC(=O)CCN(CCC(=O)OCCCCCCCCCCCCC)CCN(CCO)CCO [LE86]	22.7

Same assay, conditions: 10 w/w lipid to DNA; 300 ng DNA per well; luciferase assay after 48 hours

SMILES	% of the luciferase activity obtained from the use of Lipofectamine 2000 [%]
CCCCCCCCCCCCCOC(=O)CCN(CCC(=O)OCCCCCCCCCCCCC)CCN(CCO)CCO [LE86]	22.6

Same assay, conditions: 15 w/w lipid to DNA; 300 ng DNA per well; luciferase assay after 48 hours

SMILES	% of the luciferase activity obtained from the use of Lipofectamine 2000 [%]
CCCCCCCCCCCCCOC(=O)CCN(CCC(=O)OCCCCCCCCCCCCC)CCN(CCO)CCO [LE86]	2.5

Same assay, conditions: 20 w/w lipid to DNA; 300 ng DNA per well; luciferase assay after 48 hours

SMILES	% of the luciferase activity obtained from the use of Lipofectamine 2000 [%]
CCCCCCCCCCCCCOC(=O)CCN(CCC(=O)OCCCCCCCCCCCCC)CCN(CCO)CCO [LE86]	0.0

Same assay, conditions: 25 w/w lipid to DNA; 300 ng DNA per well; luciferase assay after 48 hours

SMILES	% of the luciferase activity obtained from the use of Lipofectamine 2000 [%]
CCCCCCCCCCCCCOC(=O)CCN(CCC(=O)OCCCCCCCCCCCCC)CCN(CCO)CCO [LE86]	0.0

Same assay, conditions: lipid/DNA 2.5 w/w; 300 ng Luciferase DNA per well; luciferase assay after 48 hours

SMILES	Luciferase expression as a percentage of that achieved using Lipofectamine 2000 [%]
CCCCCCCCCCCCCOC(=O)CCN(CC)CCCN(CC)CCC(=O)OCCCCCCCCCCCCC [LE64]	0.1
CCCCCCCCCCCCCOC(=O)CCN(CCC(=O)OCCCCCCCCCCCCC)CCN1CCOCC1 [LE90]	0.5
CCCCCCCCCCCCCCOC(=O)CCN(CCCOC)CCC(=O)OCCCCCCCCCCCCCC [LF1]	0.1
CCCCCCCCCCCCCCOC(=O)CCN(CCC(=O)OCCCCCCCCCCCCCC)CC1COC(C)(C)O1 (stereo not drawn) [LF7]	0.1
CCCCCCCCCCCCCCOC(=O)CCN(CCOC)CCC(=O)OCCCCCCCCCCCCCC [LF10]	0.1
CCCCCCCCCCCCCCOC(=O)CCN(CCOCC)CCC(=O)OCCCCCCCCCCCCCC [LF11]	0.1
CCCCCCCCCCCCCCOC(=O)CCN(CCC(=O)OCCCCCCCCCCCCCC)CC(OC)OC [LF13]	0.1

Same assay, conditions: lipid/DNA 5 w/w; 300 ng Luciferase DNA per well; luciferase assay after 48 hours

SMILES	Luciferase expression as a percentage of that achieved using Lipofectamine 2000 [%]
CCCCCCCCCCCCCOC(=O)CCN(CC)CCCN(CC)CCC(=O)OCCCCCCCCCCCCC [LE64]	0.1
CCCCCCCCCCCCCOC(=O)CCN(CCC(=O)OCCCCCCCCCCCCC)CCN1CCOCC1 [LE90]	0.3
CCCCCCCCCCCCCCOC(=O)CCN(CCCOC)CCC(=O)OCCCCCCCCCCCCCC [LF1]	0.1
CCCCCCCCCCCCCCOC(=O)CCN(CCC(=O)OCCCCCCCCCCCCCC)CC1COC(C)(C)O1 (stereo not drawn) [LF7]	0.1
CCCCCCCCCCCCCCOC(=O)CCN(CCOC)CCC(=O)OCCCCCCCCCCCCCC [LF10]	0.1
CCCCCCCCCCCCCCOC(=O)CCN(CCOCC)CCC(=O)OCCCCCCCCCCCCCC [LF11]	0.1
CCCCCCCCCCCCCCOC(=O)CCN(CCC(=O)OCCCCCCCCCCCCCC)CC(OC)OC [LF13]	0.1

Same assay, conditions: lipid/DNA 10 w/w; 300 ng Luciferase DNA per well; luciferase assay after 48 hours

SMILES	Luciferase expression as a percentage of that achieved using Lipofectamine 2000 [%]
CCCCCCCCCCCCCOC(=O)CCN(CC)CCCN(CC)CCC(=O)OCCCCCCCCCCCCC [LE64]	0.1
CCCCCCCCCCCCCOC(=O)CCN(CCC(=O)OCCCCCCCCCCCCC)CCN1CCOCC1 [LE90]	0.4
CCCCCCCCCCCCCCOC(=O)CCN(CCCOC)CCC(=O)OCCCCCCCCCCCCCC [LF1]	0.0
CCCCCCCCCCCCCCOC(=O)CCN(CCC(=O)OCCCCCCCCCCCCCC)CC1COC(C)(C)O1 (stereo not drawn) [LF7]	0.0
CCCCCCCCCCCCCCOC(=O)CCN(CCOC)CCC(=O)OCCCCCCCCCCCCCC [LF10]	0.0
CCCCCCCCCCCCCCOC(=O)CCN(CCOCC)CCC(=O)OCCCCCCCCCCCCCC [LF11]	0.0
CCCCCCCCCCCCCCOC(=O)CCN(CCC(=O)OCCCCCCCCCCCCCC)CC(OC)OC [LF13]	0.0

Same assay, conditions: lipid/DNA 15 w/w; 300 ng Luciferase DNA per well; luciferase assay after 48 hours

SMILES	Luciferase expression as a percentage of that achieved using Lipofectamine 2000 [%]
CCCCCCCCCCCCCOC(=O)CCN(CC)CCCN(CC)CCC(=O)OCCCCCCCCCCCCC [LE64]	0.0
CCCCCCCCCCCCCOC(=O)CCN(CCC(=O)OCCCCCCCCCCCCC)CCN1CCOCC1 [LE90]	0.4
CCCCCCCCCCCCCCOC(=O)CCN(CCCOC)CCC(=O)OCCCCCCCCCCCCCC [LF1]	0.0
CCCCCCCCCCCCCCOC(=O)CCN(CCC(=O)OCCCCCCCCCCCCCC)CC1COC(C)(C)O1 (stereo not drawn) [LF7]	0.0
CCCCCCCCCCCCCCOC(=O)CCN(CCOC)CCC(=O)OCCCCCCCCCCCCCC [LF10]	0.0
CCCCCCCCCCCCCCOC(=O)CCN(CCOCC)CCC(=O)OCCCCCCCCCCCCCC [LF11]	0.0
CCCCCCCCCCCCCCOC(=O)CCN(CCC(=O)OCCCCCCCCCCCCCC)CC(OC)OC [LF13]	0.0

Same assay, conditions: lipid/DNA 20 w/w; 300 ng Luciferase DNA per well; luciferase assay after 48 hours

SMILES	Luciferase expression as a percentage of that achieved using Lipofectamine 2000 [%]
CCCCCCCCCCCCCOC(=O)CCN(CC)CCCN(CC)CCC(=O)OCCCCCCCCCCCCC [LE64]	0.1
CCCCCCCCCCCCCOC(=O)CCN(CCC(=O)OCCCCCCCCCCCCC)CCN1CCOCC1 [LE90]	0.4
CCCCCCCCCCCCCCOC(=O)CCN(CCCOC)CCC(=O)OCCCCCCCCCCCCCC [LF1]	0.1
CCCCCCCCCCCCCCOC(=O)CCN(CCC(=O)OCCCCCCCCCCCCCC)CC1COC(C)(C)O1 (stereo not drawn) [LF7]	0.1
CCCCCCCCCCCCCCOC(=O)CCN(CCOC)CCC(=O)OCCCCCCCCCCCCCC [LF10]	0.1
CCCCCCCCCCCCCCOC(=O)CCN(CCOCC)CCC(=O)OCCCCCCCCCCCCCC [LF11]	0.1
CCCCCCCCCCCCCCOC(=O)CCN(CCC(=O)OCCCCCCCCCCCCCC)CC(OC)OC [LF13]	0.1

Same assay, conditions: lipid/DNA 25 w/w; 300 ng Luciferase DNA per well; luciferase assay after 48 hours

SMILES	Luciferase expression as a percentage of that achieved using Lipofectamine 2000 [%]
CCCCCCCCCCCCCOC(=O)CCN(CC)CCCN(CC)CCC(=O)OCCCCCCCCCCCCC [LE64]	0.1
CCCCCCCCCCCCCOC(=O)CCN(CCC(=O)OCCCCCCCCCCCCC)CCN1CCOCC1 [LE90]	0.4
CCCCCCCCCCCCCCOC(=O)CCN(CCCOC)CCC(=O)OCCCCCCCCCCCCCC [LF1]	0.1
CCCCCCCCCCCCCCOC(=O)CCN(CCC(=O)OCCCCCCCCCCCCCC)CC1COC(C)(C)O1 (stereo not drawn) [LF7]	0.1
CCCCCCCCCCCCCCOC(=O)CCN(CCOC)CCC(=O)OCCCCCCCCCCCCCC [LF10]	0.1
CCCCCCCCCCCCCCOC(=O)CCN(CCOCC)CCC(=O)OCCCCCCCCCCCCCC [LF11]	0.1
CCCCCCCCCCCCCCOC(=O)CCN(CCC(=O)OCCCCCCCCCCCCCC)CC(OC)OC [LF13]	0.1
